In assay [1] the target is T1, α1(V256S)β3 GABAAR (UniProt P28472+P62813, V283S). The experiment in a line: [3H]muscimol binding to HEK cell membranes, desensitization-eliminating mutant. Also on record: expressed in transfected cells; host or cells: HEK293S GnTI- (ATCC CRL-3022), transient; species or system rat α1, human β3. Particulars: 10 μM neurosteroid; 3 nM [3H]muscimol. The method, then: (§1) The human α1 and β3 GABAAR subunits were subcloned into pcDNA3 for molecular manipulations and cRNA synthesis. Using QuikChange Site-Directed Mutagenesis Kit (Agilent Technologies, Santa Clara, CA), a FLAG tag was first added to the α1 subunit then an 8xHis tag was added to generate the following His-FLAG tag tandem ([…]), inserted between the fourth and fifth residues of the mature peptide. The α1 and β3 subunits were then transferred into the pcDNA4/TO and pcDNA5/TO vectors (Thermo Fisher Scientific), respectively, for tetracycline inducible expression. Transient expression was done using the GABAAR subunits rat α1FLAG ([Ueno et al., 1996]) and human β3 obtained from Geoffrey White (Neurogen, Branford, CT), each were subcloned into pcDNA3 for molecular manipulations and cRNA synthesis. […]
(§2) [^3H]muscimol-binding assays were performed using a previously described method ([Chen et al., 2019]). […] Time courses of neurosteroid [^3H]muscimol binding enhancement were examined by adding 10 µM of neurosteroids (3α5αP, 3β5αP) to membranes that had been fully equilibrated with 3 nM [^3H]muscimol for 1 hr on ice; binding was then measured as a function of time at 1, 3, 10, 30, 60 min. […] Radioactivity bound to the filters was measured by liquid scintillation spectrometry using Bio-Safe II (Research Products International, Mount Prospect, IL).

Another assay addresses α1(Q242L)β3 GABAAR (UniProt P28472+P62813, Q268L). Description: Two-electrode voltage clamp in Xenopus laevis oocytes, Q242L mutant. The format is cell-based. Set-up: expressed in transfected cells; host or cells: Xenopus laevis oocytes injected with cRNA. The procedure: (§3) The wild-type and mutant α1β3 GABAAR were expressed in oocytes from the African clawed frog (Xenopus laevis). Frogs were purchased from Xenopus 1 (Dexter, MI), and housed and cared for in a Washington University Animal Care Facility under the supervision of the Washington University Division of Comparative Medicine. Harvesting of oocytes was conducted under the Guide for the Care and Use of Laboratory Animals as adopted and promulgated by the National Institutes of Health. The animal protocol (No. 20180191) was approved by the Animal Studies Committee of Washington University in St. Louis. The oocytes were injected with a total of 12 ng cRNA. The ratio of cRNAs was 5:1 ratio (α1:β3) to minimize the expression of β3 homomeric receptors. Following injection, the oocytes were incubated in ND96 (96 mM NaCl, 2 mM KCl, 1.8 mM CaCl2, 1 mM MgCl2, 5 mM HEPES; pH 7.4) with supplements (2.5 mM Na pyruvate, 100 U/ml penicillin, 100 μg/ml streptomycin and 50 μg/ml gentamycin) at 16°C for 2 days prior to conducting electrophysiological recordings. The electrophysiological recordings were conducted at room temperature using standard two-electrode voltage clamp. The oocytes were clamped at −60 mV. The chamber (RC-1Z, Warner Instruments, Hamden, CT) was perfused with ND96 at 5–8 ml/min. […] Current traces were analyzed with Clampfit (Molecular Devices). […]
In general terms: Two-electrode voltage clamp is typically applied to oocytes expressing channels or transporters.

The target in assay [2] is T2, α1(Q242L)β3(Y284F) GABAAR (UniProt P28472+P62813, Q268L/Y309F).
T2 construct: expressed in transfected cells; host or cells: Xenopus laevis oocytes injected with cRNA
Description: Two-electrode voltage clamp in Xenopus laevis oocytes, intersubunit + β3 intrasubunit mutant. The format is cell-based. Particulars: 3 μM 3α5αP, 1 mM GABA + 40 μM pentobarbital. The procedure: as §3

The target in assay [3] is α1(Q242L/N408A/Y411F)β3 GABAAR (UniProt P28472+P62813, N434A/Q268L/Y437F). Description: [3H]muscimol binding to HEK cell membranes, intersubunit + α1 intrasubunit site mutant. Also on record: expressed in transfected cells; host or cells: HEK293S GnTI- (ATCC CRL-3022), transient; species or system rat α1, human β3. Particulars: 3 nM [3H]muscimol, 100% means no effect. The method, then:
as §1, §2

The target in assay [4] is T1, α1(V256S)β3 GABAAR. Description: Two-electrode voltage clamp in Xenopus laevis oocytes, V256S mutant. The format is cell-based. Also on record: expressed in transfected cells; host or cells: Xenopus laevis oocytes injected with cRNA. Particulars: for % of desensitization (reduction of steady-state current): 1 mM GABA. The procedure:
The wild-type and mutant α1β3 GABAAR were expressed in oocytes from the African clawed frog (Xenopus laevis). Frogs were purchased from Xenopus 1 (Dexter, MI), and housed and cared for in a Washington University Animal Care Facility under the supervision of the Washington University Division of Comparative Medicine. Harvesting of oocytes was conducted under the Guide for the Care and Use of Laboratory Animals as adopted and promulgated by the National Institutes of Health. The animal protocol (No. 20180191) was approved by the Animal Studies Committee of Washington University in St. Louis. The oocytes were injected with a total of 12 ng cRNA. The ratio of cRNAs was 5:1 ratio (α1:β3) to minimize the expression of β3 homomeric receptors. Following injection, the oocytes were incubated in ND96 (96 mM NaCl, 2 mM KCl, 1.8 mM CaCl2, 1 mM MgCl2, 5 mM HEPES; pH 7.4) with supplements (2.5 mM Na pyruvate, 100 U/ml penicillin, 100 μg/ml streptomycin and 50 μg/ml gentamycin) at 16°C for 2 days prior to conducting electrophysiological recordings. The electrophysiological recordings were conducted at room temperature using standard two-electrode voltage clamp. The oocytes were clamped at −60 mV. The chamber (RC-1Z, Warner Instruments, Hamden, CT) was perfused with ND96 at 5–8 ml/min. Solutions were gravity-applied from 30 ml glass syringes with glass luer slips via Teflon tubing. The current responses were amplified with an OC-725C amplifier (Warner Instruments, Hamden, CT), digitized with a Digidata 1200 series digitizer (Molecular Devices), and stored using pClamp (Molecular Devices). Current traces were analyzed with Clampfit (Molecular Devices). […] The stock solution of muscimol was made at 20 mM in ND96 and stored at 4°C. The steroids were dissolved in DMSO at 10–20 mM and stored at room temperature.

For assay [5], the target named is T3, α1(N408A/Y411F)β3(Y284F) GABAAR (UniProt P28472+P62813, N434A/Y309F/Y437F).
T3 construct: expressed in transfected cells; host or cells: Xenopus laevis oocytes injected with cRNA
Description: Two-electrode voltage clamp in Xenopus laevis oocytes, both intrasubunit sites mutated. Format: cell-based. Particulars: 3 μM 3β5αP, 1 mM GABA + 25 μM pentobarbital. The procedure:
as §3

A further assay has as its target T4, α1(V227W)β3 GABAAR (UniProt P28472+P62813, V253W).
T4 construct: expressed in transfected cells; host or cells: HEK293S GnTI- (ATCC CRL-3022), transient
Description: [3H]muscimol binding to HEK cell membranes, α1 intrasubunit site mutant V227W. Also on record: species or system rat α1, human β3. The procedure: The human α1 and β3 GABAAR subunits were subcloned into pcDNA3 for molecular manipulations and cRNA synthesis. Using QuikChange Site-Directed Mutagenesis Kit (Agilent Technologies, Santa Clara, CA), a FLAG tag was first added to the α1 subunit then an 8xHis tag was added to generate the following His-FLAG tag tandem ([…]), inserted between the fourth and fifth residues of the mature peptide. The α1 and β3 subunits were then transferred into the pcDNA4/TO and pcDNA5/TO vectors (Thermo Fisher Scientific), respectively, for tetracycline inducible expression. Transient expression was done using the GABAAR subunits rat α1FLAG ([Ueno et al., 1996]) and human β3 obtained from Geoffrey White (Neurogen, Branford, CT), each were subcloned into pcDNA3 for molecular manipulations and cRNA synthesis. Point mutations were generated using the QuikChange Site-Directed Mutagenesis Kit (Agilent) and the coding region was fully sequenced prior to use. The cDNAs were linearized with XbaI (NEB Labs, Ipswich, MA), and the cRNAs were generated using T7 mMessage mMachine (Ambion, Austin, TX).
[^3H]muscimol-binding assays were performed using a previously described method ([Chen et al., 2019]). […] Assay tubes were incubated for 1 hr on ice in the dark. […] Membranes were collected on Whatman/GF-C glass filter papers using a Brandel cell harvester (Gaithersburg, MD). To perform [^3H]muscimol binding isotherms, 100 μg/ml aliquots of membrane protein were incubated with 0.3 nM–1 μM [^3H]muscimol for 1 hr on ice in the dark. The specific activity for [^3H]muscimol concentrations from 30 nM to 1 μM was reduced to 2 Ci/mmol by dilution with nonradioactive muscimol. The membranes were collected on Whatman/GF-B glass filter papers using a vacuum manifold. […] For [^3H]muscimol-binding experiments examining competitive interactions between neurosteroids, the combined neurosteroids (0.3 μM 3α5αP or 3 μM KK148 ±30 μM KK150) or the same volume of dimethyl sulfoxide (DMSO) were added to the membranes which were then incubated with 3 nM [^3H]muscimol on ice for 1 hr. Time courses of neurosteroid [^3H]muscimol binding enhancement were examined by adding 10 µM of neurosteroids (3α5αP, 3β5αP) to membranes that had been fully equilibrated with 3 nM [^3H]muscimol for 1 hr on ice; binding was then measured as a function of time at 1, 3, 10, 30, 60 min. The membranes were collected on Whatman/GF-B glass filter papers using a vacuum manifold. Radioactivity bound to the filters was measured by liquid scintillation spectrometry using Bio-Safe II (Research Products International, Mount Prospect, IL).

This is an account of results in PMC7532004, “Site-specific effects of neurosteroids on GABAA receptor activation and desensitization” (eLife, 2020).

Turning to `CC(=O)[C@H]1CC[C@H]2[C@@H]3CC[C@H]4C[C@H](O)CC[C@]4(C)[C@H]3CC[C@]12C` [3α5αP, allopregnanolone], on α1(V256S)β3 GABAAR [1], the “Enhancement of specific [3H]muscimol binding in α1(V256S)β3 compared with WT” value was “unaffected”. At α1(Q242L)β3 GABAAR (3 μM 3α5αP, 1 mM GABA + 40 μM pentobarbital, α1(Q242L)β3), the “Effect on steady-state current” value is “small reduction”. In assay [2], the “Inhibition of steady-state current, effect of β3 intrasubunit site mutation” value is “markedly reduced”. For the same molecule, the “Emax (% of control) of [3H]muscimol binding” value in assay [3] is “**105.9 ± 7.3 % of control”. The “Inhibitory effect on steady-state current in the V256S mutant” value at α1(V256S)β3 GABAAR [4] (3 μM 3α5αP, 1 mM GABA + 40 μM pentobarbital) was “eliminated”.
`CC(=O)[C@H]1CC[C@H]2[C@@H]3CC[C@H]4C[C@@H](O)CC[C@]4(C)[C@H]3CC[C@]12C` [3β5αP, epi-allopregnanolone]: on α1(V256S)β3 GABAAR [1], the “Enhancement of specific [3H]muscimol binding in α1(V256S)β3 compared with WT” value is “absent”. For the same molecule, the “Effect of mutation on 3β5αP-enhanced desensitization” value on α1(Q242L)β3 GABAAR (3 μM 3β5αP, 1 mM GABA, α1(Q242L)β3 vs WT) is “without effect”. In addition, at α1(V256S)β3 GABAAR [4], the “% of desensitization (reduction of steady-state current)” value is recorded as “completely eliminated”. Moreover, the “Enhancement of desensitization compared with single intrasubunit site mutants” value in assay [5] is “less NS-enhancement of desensitization”.
Take `C#CCCO[C@H]1CC[C@H]2[C@@H]3CC[C@H]4CC5(CC[C@]4(C)[C@H]3CC[C@]12C)N=N5` [KK148]: the “% of desensitization (reduction of steady-state current)” value at α1(V256S)β3 GABAAR [4] is on record as 0%. For the same molecule, the “Hill slope for modulation of [3H]muscimol binding” value at α1(V227W)β3 GABAAR (3 nM [3H]muscimol) worked out at 0.76 ± 0.31. Further, the “Emax (% of control) of [3H]muscimol binding” value on α1(V227W)β3 GABAAR (3 nM [3H]muscimol, 100% means no effect) is “**209.2 ± 7.4 % of control”. For the same molecule, the concentration giving a half-maximal response (EC50) – broadly, the midpoint of the concentration-response curve – at α1(V227W)β3 GABAAR (3 nM [3H]muscimol, read-out: EC50 for modulation of [3H]muscimol binding) is 1730 ± 680 nM.
Turning to `NCc1cc(=O)[nH]o1` [muscimol], the “Bmax of [3H]muscimol binding isotherm” value at α1(V227W)β3 GABAAR is recorded as 11.6 ± 0.4 (P > 0.99 vs. WT) pmol/mg. The Kd – broadly, the concentration at which binding is half-saturated – on α1(V227W)β3 GABAAR (read-out: Kd of [3H]muscimol binding isotherm) was determined as 54.1 ± 5.8 nM.
